20 molecules from patent publication US4677104A, “Antipsychotic fused-ring pyridinylpiperazine derivatives” (Bristol-Myers Company, priority 1986, dated 1987) can be followed below.

As a reminder, the ED50 is the midpoint of the dose-response relation.

Common to all, as to format: in vivo
The test system of data set [1] is avoidance response to electrical shock in trained fasted rats. Briefly: Conditioned Avoidance Response (CAR). Conditions: Rattus norvegicus, po. From the text:
Conditioned Avoidance Response (CAR) - measure of a
drug's tranquilizing activity as determined by its
attenuation of avoidance response to electrical shock
in trained fasted rats. cf: Albert, Pharmacologist, 4,

For data set [2], the system named is apomorphine-induced stereotypy in rats. As to the kind of experiment: Inhibition of Apomorphine-Induced (APO) Stereotypy. The note with it: Rattus norvegicus, po. From the text: 2. Inhibition of Apomorphine-Induced (APO) Stereotypy -
an assessment of blockade of dopaminergic activity in
rats as measured by attenuation of the behavioral
syndrome caused by the dopamine agonist, apomorphine.
of: Janssen, et al., Arzneimittel. Forsch., 17, 841

Data set [3] is described as follows: Catalepsy (drug-induced catalepsy). The note with it: rat, in vivo, po, rats; read-out: Catalepsy Induction ED50. From the text: (§1) 3. Catalepsy - drug-induced catalepsy in rats is predic-
(§2) tive of potential extrapyramidal symptoms (EPS) in man.
(§3) of: Costall, et al., Psychopharmacologia, 34, 233-241

For data set [4], the system named is neuroleptic-induced catalepsy in the rat. Briefly: Catalepsy Reversal. The note with it: po. From the text:
4. Catalepsy Reversal - measure of a drug's ability to
reverse neuroleptic-induced catalepsy in the rat.

For data set [5], the system named is drug-induced catalepsy in rats. As to the kind of experiment: Catalepsy (drug-induced catalepsy). Conditions: p.o.
Description: as §1, §2, §3

In the case of `O=C1SC2(CCCC2)C(=O)N1CCCCN1CCN(c2nccc3occc23)CC1` [Example 37], the ED50 in data set [1] was 9 mg/kg; in data set [2], 18 mg/kg; in data set [3], 23 mg/kg; in data set [4], greater than 20 mg/kg.

As to `OC(CCCN1CCN(c2nccc3occc23)CC1)c1ccc(F)cc1` (centres unmarked) [Example 39], the ED50 in data set [1] was 3 mg/kg; in data set [2] it was 5 mg/kg; in data set [3] it was 11 mg/kg; in data set [4], greater than 20 mg/kg.

For `O=C1SC2(CCCC2)C(=O)N1CCCCN1CCN(c2nccc3sccc23)CC1` [Example 26], the ED50 was 12 mg/kg in data set [1], 35 mg/kg in data set [2] and greater than 20 mg/kg in data set [4].

In the case of `CC1(C)CC(=O)N(CCCCN2CCN(c3nccc4sccc34)CC2)C(=O)C1` [Example 24, 4,4-Dimethyl-1-[4-[4-(thieno[3,2-c]pyridin-4-yl)-1-piperazinyl]butyl]-2,6-piperidinedione], the ED50 in data set [1] was 6 mg/kg; in data set [2], 40 mg/kg; in data set [3] it was greater than 24 mg/kg; in data set [4], greater than 20 mg/kg.

As to `Cc1cc2c(N3CCN(CCCCN4C(=O)CC(C)(C)CC4=O)CC3)nccc2o1` [Example 41], the ED50 in data set [1] was 14 mg/kg; in data set [2] it was 22 mg/kg; in data set [3], 40 mg/kg; in data set [4] it was greater than 20 mg/kg.

In the case of `Cc1cc2c(N3CCN(CCCC(O)c4ccc(F)cc4)CC3)nccc2o1` (centres unmarked) [Example 43], the ED50 in data set [1] is 23 mg/kg; in data set [4] it was greater than 20 mg/kg.

Consider `OC(CCCN1CCN(c2nccc3sccc23)CC1)c1ccc(F)cc1` (centres unmarked) [Example 27], for which the ED50 in data set [1] is 10 mg/kg; in data set [2], 9 mg/kg; in data set [3], greater than 40 mg/kg; in data set [4], greater than 20 mg/kg.

`Cc1cc2c(N3CCN(CCCCN4C(=O)SC5(CCCC5)C4=O)CC3)nccc2s1` [Example 30]: the values for the ED50 in data set [1], in data set [3] and in data set [4] were 35 mg/kg, greater than 142 mg/kg and greater than 20 mg/kg, respectively.

Turning to `Cc1cc2c(N3CCN(CCCCN4C(=O)SC5(CCCC5)C4=O)CC3)nccc2o1` [Example 40], the ED50 in data set [1] was 28 mg/kg; in data set [2], 41 mg/kg.

For the molecule `O=C1SC2(CCCC2)C(=O)N1CCCCN1CCN(c2nccc3ccsc23)CC1` [Example 36], the ED50 in data set [1] is 43 mg/kg; in data set [2], 47 mg/kg; in data set [4], greater than 20 mg/kg.

In the case of `Cn1ccc2c(N3CCN(CCCCN4C(=O)CC(C)(C)CC4=O)CC3)nccc21` [Example 49], the ED50 was 67 mg/kg in data set [1], greater than 100 mg/kg in data set [2] and greater than 20 mg/kg in data set [4].

Regarding `O=C1CSCC(=O)N1CCCCN1CCN(c2nccc3occc23)CC1` [Example 42], the ED50 in data set [1] was 36 mg/kg; in data set [2] it was 63 mg/kg; in data set [4] it was greater than 20 mg/kg.

For the molecule `O=C1COCC(=O)N1CCCCN1CCN(c2nccc3occc23)CC1` [Example 25, 4-[4-[4-(4-Furo[3,2-c]pyridinyl)-1-piperazinyl]butyl]-3,5-morpholinedione], the ED50 was 11 mg/kg in data set [1], 34 mg/kg in data set [2], greater than 46 mg/kg in data set [3] and 2 mg/kg in data set [4].

Take `O=C1SC2(CCCC2)C(=O)N1CCCCN1CCN(c2nccc3sc(Br)cc23)CC1` [Example 28]: the ED50 is greater than 100 mg/kg in data set [1], greater than 100 mg/kg in data set [2] and 16 mg/kg in data set [4].

On to `Cn1ccc2c(N3CCN(CCCCN4C(=O)COCC4=O)CC3)nccc21` [Example 48], for which the values for the ED50 in data set [1], in data set [2] and in data set [4] were greater than 100 mg/kg, greater than 100 mg/kg and greater than 20 mg/kg, respectively.

`CC1(C)CC(=O)N(CCCCN2CCN(c3nccc4sc(Br)cc34)CC2)C(=O)C1` [Example 29]: the ED50 in data set [1] was 65 mg/kg; in data set [4], greater than 20 mg/kg.

`O=C1CCCC(=O)N1CCCCN1CCN(c2nccc3sccc23)CC1` [Example 58]: the figures for the ED50 in data set [1], in data set [2] and in data set [4] were 5 mg/kg, 56 mg/kg and greater than 20 mg/kg, respectively. For the same molecule, the “Catalepsy Induction ED50” value in data set [5] was “Inactive at 4 ×”.

Regarding `O=C1CSCC(=O)N1CCCCN1CCN(c2nccc3sccc23)CC1` [Example 31], the values for the ED50 in data set [1], in data set [3] and in data set [4] were 32 mg/kg, greater than 128 mg/kg and greater than 20 mg/kg, respectively.

As for `CC1(C)CC(=O)N(CCCCN2CCN(c3nccc4occc34)CC2)C(=O)C1` [Example 38], the ED50 in data set [1] is 4 mg/kg; in data set [2], 7 mg/kg; in data set [3], 13 mg/kg; in data set [4], greater than 20 mg/kg.

Turning to `Cn1ccc2c(N3CCN(CCCCN4C(=O)SC5(CCCC5)C4=O)CC3)nccc21` [Example 47], the ED50 in data set [1] is 60 mg/kg; in data set [2], 61 mg/kg; in data set [4] it was greater than 20 mg/kg.
